ChEMBL document CHEMBL3396976, “Design, synthesis and evaluation of isoxazolo[5,4-d]pyrimidin-4(5H)-one derivatives as antithrombotic agents” (Bioorg Med Chem Lett, 2015)
The source made the active and inactive calls. The rule behind the calls is not given here.

Columns and labels:
Coagulation factor X [1] = target: T1, Coagulation factor X (Homo sapiens, UniProt P00742); assay: Inhibition of human F10a using chromogenic substrate S-2765 preincubated for 10 mins at 0.1 uM by spectrophotometry
Plasma = assay: Anticoagulant activity in human plasma assessed as concentration required to double prothrombin time; assay type: functional
Coagulation factor X [2] = target: T1, Coagulation factor X; assay: Inhibition of human F10a using chromogenic substrate S-2765 preincubated for 10 mins by spectrophotometry
Prothrombin = Prothrombin (Homo sapiens, UniProt P00734); assay: Inhibition of thrombin (unknown origin) using chromogenic substrate S-2238 by spectrophotometry
Homo sapiens [3] = organism: Homo sapiens; assay: Selectivity ratio of IC50 for thrombin (unknown origin) to IC50 for human F10a
Homo sapiens [4] = organism: Homo sapiens; assay: Selectivity ratio of IC50 for trypsin (unknown origin) to IC50 for human F10a

T1 sequence (P00742 41-179 limits assumed): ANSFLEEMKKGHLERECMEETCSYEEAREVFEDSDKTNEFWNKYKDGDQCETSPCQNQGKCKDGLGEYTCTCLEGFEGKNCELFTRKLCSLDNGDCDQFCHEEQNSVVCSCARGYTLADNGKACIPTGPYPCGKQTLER
T1 sequence (P00742 235-488 limits assumed): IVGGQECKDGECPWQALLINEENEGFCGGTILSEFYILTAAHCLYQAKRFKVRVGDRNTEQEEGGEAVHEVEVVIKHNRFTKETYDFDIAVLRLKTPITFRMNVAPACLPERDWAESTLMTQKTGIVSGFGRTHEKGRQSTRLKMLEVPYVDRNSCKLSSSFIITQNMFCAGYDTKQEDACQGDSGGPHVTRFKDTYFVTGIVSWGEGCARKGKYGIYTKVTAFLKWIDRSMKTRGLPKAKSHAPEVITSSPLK

Row | SMILES | inhibition (Coagulation factor X [1]) | also measured
1 | COc1ccc(-c2noc3ncn(-c4ccc(C(=O)N5CCCC5)cc4)c(=O)c23)cc1 | 46% | –
2 | CCc1nc2onc(-c3ccc(Cl)cc3)c2c(=O)n1-c1ccc(N2CCOCC2=O)cc1 | inactive | –
3 | COc1ccc(-c2noc3ncn(-c4ccc(N5CCOCC5=O)cc4)c(=O)c23)cc1OC | 77% | –
4 | CCc1nc2onc(-c3ccc(OC)cc3)c2c(=O)n1-c1ccc(N2CCOCC2=O)cc1 | 36% | –
5 | COc1ccc(-c2noc3ncn(-c4ccc(C(=O)N5CCCCC5)cc4)c(=O)c23)cc1 | 54% | –
6 | CCc1nc2onc(-c3ccc(C)cc3)c2c(=O)n1-c1ccc(N2CCOCC2=O)cc1 | inactive | –
7 | COc1ccc(-c2noc3ncn(-c4ccc(C(=O)Nc5ccccc5)cc4)c(=O)c23)cc1 | 81% | –
8 | COc1ccc(-c2noc3ncn(-c4ccc(C(=O)NC5CCCC5)cc4)c(=O)c23)cc1 | 75% | –
9 | COc1ccc(-c2noc3nc(C)n(-c4ccc(N5CCOCC5=O)cc4)c(=O)c23)cc1 | 55% | –
10 | CCN(CC)C(=O)c1ccc(-n2cnc3onc(-c4ccc(OC)cc4)c3c2=O)cc1 | 83% | –
11 | Cc1ccc(-c2noc3ncn(-c4ccc(N5CCOCC5=O)cc4)c(=O)c23)cc1 | 43% | –
12 | COc1ccc(-c2noc3nc(C)n(-c4ccc(N5CCOCC5=O)cc4)c(=O)c23)cc1OC | 47% | –
13 | O=C1COCCN1c1ccc(-n2cnc3onc(-c4ccc(Cl)cc4)c3c2=O)cc1 | 56% | –
14 | COc1ccc(-c2noc3ncn(-c4ccc(C(=O)Nc5ccccn5)cc4)c(=O)c23)cc1 | 89% | 2PT (Plasma): 3.37 µM; IC50 (Coagulation factor X [2]): 18 nM; IC50 (Prothrombin): > 20000 nM; Ratio IC50 (Homo sapiens [3]): > 1000; Ratio IC50 (Homo sapiens [4]): > 1000
15 | O=C(NC[C@H]1CN(c2ccc(N3CCOCC3=O)cc2)C(=O)O1)c1ccc(Cl)s1 | Active | –
16 | COc1ccc(-c2noc3ncn(-c4ccc(N5CCOCC5=O)cc4)c(=O)c23)cc1 | 78% | –
17 | CCCNC(=O)c1ccc(-n2cnc3onc(-c4ccc(OC)cc4)c3c2=O)cc1 | 83% | –
18 | Cc1ccc(-c2noc3nc(C)n(-c4ccc(N5CCOCC5=O)cc4)c(=O)c23)cc1 | inactive | –
19 | CCc1nc2onc(-c3ccccc3)c2c(=O)n1-c1ccc(N2CCOCC2=O)cc1 | inactive | –
20 | Cc1nc2onc(-c3ccc([N+](=O)[O-])cc3)c2c(=O)n1-c1ccc(N2CCOCC2=O)cc1 | inactive | –
21 | CCc1nc2onc(-c3ccc(OC)c(OC)c3)c2c(=O)n1-c1ccc(N2CCOCC2=O)cc1 | 42% | –
22 | COc1ccc(-c2noc3ncn(-c4ccc(C(=O)N(C)c5ccccc5)cc4)c(=O)c23)cc1 | 47% | –
23 | COc1ccc(-c2noc3ncn(-c4ccc(C(=O)N5CCOCC5)cc4)c(=O)c23)cc1 | 37% | –
24 | COc1cc(-c2noc3ncn(-c4ccc(N5CCOCC5=O)cc4)c(=O)c23)ccc1OC(C)=O | 98% | 2PT (Plasma): 2.12 µM; IC50 (Coagulation factor X [2]): 13 nM; IC50 (Prothrombin): > 20000 nM; Ratio IC50 (Homo sapiens [3]): > 1000; Ratio IC50 (Homo sapiens [4]): > 1000
25 | Cc1nc2onc(-c3ccccc3)c2c(=O)n1-c1ccc(N2CCOCC2=O)cc1 | inactive | –
26 | Cc1nc2onc(-c3ccc(Cl)cc3)c2c(=O)n1-c1ccc(N2CCOCC2=O)cc1 | 41% | –
27 | O=C1COCCN1c1ccc(-n2cnc3onc(-c4ccc([N+](=O)[O-])cc4)c3c2=O)cc1 | inactive | –
28 | COc1ccc(-c2noc3ncn(-c4ccc(C(=O)NC5CCCCC5)cc4)c(=O)c23)cc1 | 72% | –
29 | O=C1COCCN1c1ccc(-n2cnc3onc(-c4ccccc4)c3c2=O)cc1 | 27% | –
30 | CCc1nc2onc(-c3ccc([N+](=O)[O-])cc3)c2c(=O)n1-c1ccc(N2CCOCC2=O)cc1 | inactive | –
